# Experimental data reported in patent EP2678315B1, “(Pyridin-4-yl)benzylamides as allosteric modulators of alpha 7 nAChR” (Janssen Pharmaceutica, N.V., priority 2011, dated 2012).
# Key:
# [1] = biological target: T1, human alpha 7-wt nAChR (Homo sapiens, UniProt P36544); experiment: Ca2+ flux imaging (FDSS) (protocol B); format: cell-based; conditions: for EC50: Ca2+ assay as described in D.1, read-out: pEC50 (converted); for Emax: read-out: % Efficacy
# T1 construct: expressed in transfected cells
# T1 sequence (P36544 23-502): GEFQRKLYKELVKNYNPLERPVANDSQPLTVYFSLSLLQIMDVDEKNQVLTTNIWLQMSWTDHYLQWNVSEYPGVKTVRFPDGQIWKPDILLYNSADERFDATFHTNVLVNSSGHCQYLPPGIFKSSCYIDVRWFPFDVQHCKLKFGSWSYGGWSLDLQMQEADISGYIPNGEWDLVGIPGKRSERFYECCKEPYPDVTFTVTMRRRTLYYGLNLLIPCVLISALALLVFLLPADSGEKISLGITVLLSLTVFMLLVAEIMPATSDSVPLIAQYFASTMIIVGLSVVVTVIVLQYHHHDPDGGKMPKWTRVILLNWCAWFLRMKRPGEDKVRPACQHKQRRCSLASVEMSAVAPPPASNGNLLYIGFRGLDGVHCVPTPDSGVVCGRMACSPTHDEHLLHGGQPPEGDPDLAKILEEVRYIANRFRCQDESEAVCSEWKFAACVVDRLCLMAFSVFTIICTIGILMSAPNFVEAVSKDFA
# In short: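 Fluo-4AM-loaded (2 µM) cells expressing human α7-wt nAChR in HEPES-HBSS with 5 mM CaCl2. Compounds (0.01–30 µM) were added, possibly 10 min before, with choline 100 µM, and peak fluorescence was monitored by FDSS. Potentiation was relative to the choline response, set as 100%; EC50 came from sigmoidal curves.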
# [2] = biological target: T1, human alpha 7-wt nAChR; experiment: Patch-clamp current recording (whole-cell voltage-clamp, GH4C1 cells); format: cell-based; design: key: Type 0 compounds minimally change the effect size of the current elicited by 1 mM choline.; Type 1 compounds enhance the effect size of the current elicited by 1 mM choline but minimally alter the kinetics of the receptor.; Type 2 compounds enhance the effect size of the current elicited by 1 mM choline while reducing the rate and/or the extent of desensitization.; Type 3 compounds enhance the effect size of the current elicited by 1 mM choline. When tested at higher concentrations up to 10 µM they completely inhibit desensitization; Type 4 compounds allow for an initial desensitization of the receptor followed by a re-opening of the receptor during agonist application; conditions: current elicited by 1 mM choline
# Description: The compounds of the present invention are classified as type 1-4, based on qualitative kinetic properties, as determined by whole-cell voltage-clamp recordings. This classification is based on the effect of an alpha 7 PAM compound, as described hereinbefore, on the signal elicited by an agonist application. In particular, said agonist is choline at a concentration of 1mM. In a preferred experimental setting, said alpha 7 PAM compound and choline are simultaneously applied to the cell, as described hereinafter. Desensitization is defined as the closure of the receptor upon activation during the application of the agonist in whole-cell voltage-clamp electrophysiology measurements seen as the reduction of the […] current after initial activation by the agonist.
# The definition of the PAM types 1-4 is described hereinafter: Type 0 compounds minimally change the effect size of the current elicited by 1 mM choline. Type 1 compounds enhance the effect size of the current elicited by 1 mM choline but minimally alter the kinetics of the receptor. In particular, the rate and the extent of desensitization and of deactivation of the receptor elicited by the agonist is not affected. The compound-modulated response to 1 mM choline, therefore, is close to a linear scaling of the 1 mM choline response in absence of the alpha 7 PAM compound: Type 2 compounds enhance the effect size of the current elicited by 1 mM choline while reducing the rate and/or the extent of desensitization. Deactivation of the receptor is generally unaffected. Type 3 compounds enhance the effect size of the current elicited by 1 mM choline. […] Deactivation of the receptor may be slowed down. Type 4 compounds allow for an initial desensitization of the receptor followed by a re-opening of the receptor during agonist application. At low-potency concentrations of the alpha 7 PAM compound, the agonist-induced activation, which is followed by desensitization, can still be separated from the compound-induced re-opening as an initial inward current-maximum. At higher potency concentrations of the alpha 7 PAM compound, the re-opening occurs faster than the closure due to desensitization so that the initial current-maximum disappears.
# A compound was considered to have interesting PAM-like activity when the potentiation of the peak current was at least 200% compared to the control choline response (= 100%). Such compounds are classified as belonging to a particular PAM type in the Experimental Part. Compounds not meeting the condition are not classified as belonging to a particular PAM-type.
# The compounds also have a potentiating effect on the response to choline when measured by whole-cell patch clamp electrophysiology in GH4C1 cells stably over-expressing the human wild-type alpha 7 receptor.
# Example D.2 : Patch-clamp current recording
# Patch-clamp recording from mammalian cells has provided a powerful means of assessing the function of membrane-bound proteins thought to be subunits of ligand-gated ion channels. Activation of such proteins by endogenous or exogenous ligands cause opening of a pore associated with the receptor through which ions flow down their electrochemical gradient. In the case of the human alpha 7-wt nAChR-expressing GH4C1 recombinant cell line the preferential permeability to calcium of this receptor means that calcium flows into the cell upon activation by ACh, choline and other nicotinic ligands giving rise to a calcium current. Since this receptor rapidly desensitizes in the presence of agonist it is important that an application system is used which is capable of very rapid switching of solutions (< 100 ms) to prevent partial or full desensitisation of receptor responses coincident with the time of agonist application. Consequently, a second convenient technique to assess the enhancement of nicotinic efficacy is a patch-clamp recording from human alpha 7-wt nAChR-expressing GH4C1 cells coupled with a rapid-application system. […]
Structure (SMILES),EC50 [1] [nM],Emax [1] [%],PAM type [2]
Cc1cc(-c2c(F)cc(N3CCOC(C)C3)cc2CNC(=O)CC2CC2)cc(C)n1 (stereo not shown) [Compound 114],158,415,3
Cc1cc(-c2cc(F)c(N3C[C@@H](C)O[C@@H](C)C3)cc2CNC(=O)C(C)C)cc(C)n1 [Compound 128],295,329,2
Cc1cc(-c2c(F)cc(N3CCO[C@H](C(F)(F)F)C3)cc2CNC(=O)CC(C)C)cc(C)n1 [Compound 110],5.01,384,3
Cc1cc(-c2ccc(N3C[C@@H](C)O[C@@H](C)C3)c(CNC(=O)CC3CC3)c2)cc(C)n1 [Compound 132],60.3,,4
Cc1cc(-c2c(F)cc(N3C[C@@H](C)O[C@@H](C)C3)c(F)c2CNC(=O)CC2CC2)cc(C)n1 [Compound 124],347,,2
